From patent US20060251714A1, “Pharmaceutical formulations of amyloid inhibiting compounds” (priority 2005, published 2006) come the findings set out here.

The nature of this series: Gastrointestinal tolerability of capsules (solid dosage form). The series is classed as in vivo. Conditions: solid dosage form (capsules, Table 2). On the procedure:
Furthermore, the non-hygroscopic nature of the acid form makes it desirable as active pharmaceutical ingredient. To further protect against any possible gastrointestinal intolerance that could result from the acid form, the tablets are enteric-coated and a modified-release agent is added to control any rapid release of the drug in the stomach and the intestine, respectively.

In the case of `NCCCS(=O)(=O)[O-].[Na+]` [3-amino-1-propanesulfonic acid sodium salt], the “gastrointestinal symptoms (i.e. nausea and vomiting)” value is reported as “associated with gastrointestinal symptoms”.
